The values that follow come from US10584115B2, “Substituted pyridine and pyrazine BMI-1 inhibitors” (PTC Therapeutics, Inc., priority 2013, dated 2020).

The first experiment deals with Bmi-1 protein. The experiment is described as follows: Sandwich ELISA Assay (Bmi-1 protein level in HT-1080 cells after compound treatment). In kind it is cell-based. The following applies: Table 1, Bmi-1 sandwich ELISA, read-out: ELISA EC50 value for Bmi-1 protein. In outline:
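HT-1080 cells exposed to compounds for 40–48 h at 37 °C (0.5% DMSO final), then lysed. Bmi-1 in lysates measured by sandwich ELISA (mouse monoclonal capture, rabbit anti-Bmi-1 detection, HRP anti-rabbit, TMB), read at OD450 with OD570 reference against a recombinant Bmi-1 standard curve (0–8000 pg/mL).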
(In general: An ELISA detects its analyte on a solid surface through an enzyme-linked reagent.)
With `CCc1nn(C)c(CC)c1-c1cncc(Nc2ccc(OC(F)F)cc2)n1` [compound 333, 6-(3,5-diethyl-1-methyl-1H-pyrazol-4-yl)-N-[4-(difluoromethoxy)phenyl]pyrazin-2-amine], the EC50 was in the range of 1 to 10 nM.
Regarding `Cc1nc2c(N)cccc2n1-c1cncc(Nc2ccc(C(F)(F)F)cc2)n1` [compound 296, 2-methyl-1-(6-{[4-(trifluoromethyl)phenyl]amino}pyrazin-2-yl)-1H-benzimidazol-4-amine], the EC50 is 10 to 100 nM.
Consider `Cc1nc2ccccc2n1-c1cncc(Nc2ccc(C(F)F)cc2)n1` [compound 507, N-[4-(difluoromethyl)phenyl]-6-(2-methyl-1H-benzimidazol-1-yl)pyrazin-2-amine], for which the EC50 fell in the range of 10 to 100 nM.
Turning to `CC(O)c1nc2ccccc2n1-c1cncc(Nc2ccc(C(F)(F)F)cc2)n1` (stereo not shown) [compound 150, 1-[1-(6-{[4-(trifluoromethyl)phenyl]amino}pyrazin-2-yl)-1H-benzimidazol-2-yl]ethanol], the EC50 was 10 to 100 nM.
On the same count and under the same terms, for `C=CCN1CCc2c(nc(C)n2-c2cncc(Nc3ccc(C(F)(F)F)cc3)n2)C1` [compound 375] the value was 100 to 3000 nM; for `Cc1nc2cc(F)c(F)cc2n1-c1c[n+]([O-])cc(Nc2ccc(OC(F)F)cc2)n1` [compound 516, N-[4-(difluoromethoxy)phenyl]-6-(5,6-difluoro-2-methyl-1H-benzimidazol-1-yl)pyrazin-2-amine 4-oxide], 10 to 100 nM.
Still for that read-out and setting: for `COc1ccc(Nc2cc(C#N)cc(-n3c(C)nc4ccc(F)cc43)n2)cc1` [compound 589, 2-(6-fluoro-2-methyl-1H-benzimidazol-1-yl)-6-[(4-methoxyphenyl)amino]pyridine-4-carbonitrile] the value was 10 to 100 nM.
On the same count and under the same terms, for `Cc1nc2ncncc2n1-c1cncc(Nc2ccc(C(F)(F)F)cc2)n1` [compound 371, 6-(8-methyl-7H-purin-7-yl)-N-[4-(trifluoromethyl)phenyl]pyrazin-2-amine] the value was 100 to 3000 nM.
`FC(F)(F)c1ccc(Nc2cncc(-c3ccnc(-c4ccnc(Cl)c4)c3)n2)cc1` [compound 354, 6-(2′-chloro-2,4′-bipyridin-4-yl)-N-[4-(trifluoromethyl)phenyl]pyrazin-2-amine]: the EC50 was in the range of 100 to 3000 nM.
Regarding `COc1ccc2nc(C)c(-c3cc(C#N)cc(Nc4ccc(Cl)cc4)n3)n2c1` [compound 676, 2-[(4-chlorophenyl)amino]-6-(6-methoxy-2-methylimidazo[1,2-a]pyridin-3-yl)pyridine-4-carbonitrile], the EC50 was 10 to 100 nM.
Still for that read-out and setting: for `Cc1nc2ncc(F)cn2c1-c1cncc(Nc2ccc(C(F)(F)F)cc2)n1` [compound 453, 6-(6-fluoro-2-methylimidazo[1,2-a]pyrimidin-3-yl)-N-[4-(trifluoromethyl)phenyl]pyrazin-2-amine] the value was 10 to 100 nM; for `Cc1nc2cc(F)ccc2n1-c1cncc(Nc2ccc(C(F)(F)F)nc2)n1` [compound 431, 6-(5-fluoro-2-methyl-1H-benzimidazol-1-yl)-N-[6-(trifluoromethyl)pyridin-3-yl]pyrazin-2-amine], 10 to 100 nM; for `Cc1nc2cc(F)c(F)cc2n1-c1cncc(Nc2ccc(OC(F)(F)F)cc2)n1` [compound 266, 6-(5,6-difluoro-2-methyl-1H-benzimidazol-1-yl)-N-[4-(trifluoromethoxy)phenyl]pyrazin-2-amine], 10 to 100 nM.
The same measure, in the same setting: for `FC(F)(F)Oc1ccc(Nc2cccc(-c3c(C(F)(F)F)nc4ccccn34)n2)cc1` [Cpd 16, N-[4-(trifluoromethoxy)phenyl]-6-[2-(trifluoromethyl)imidazo[1,2-a]pyridin-3-yl]pyridin-2-amine] the value was 10 to 100 nM; for `Fc1cc(Nc2cncc(-c3c(C(F)(F)F)nc4ccccn34)n2)ccc1Br` [Cpd 30, N-(4-bromo-3-fluorophenyl)-6-[2-(trifluoromethyl)imidazo[1,2-a]pyridin-3-yl]pyrazin-2-amine], 1 to 10 nM; for `N#Cc1nc2ccccc2n1-c1cncc(Nc2ccc(C(F)(F)F)cc2)n1` [compound 157, 1-(6-{[4-(trifluoromethyl)phenyl]amino}pyrazin-2-yl)-1H-benzimidazole-2-carbonitrile], 100 to 3000 nM.
Same read-out and setting: for `Cc1nc2ccccc2n1-c1cncc(Nc2ccc(C(N)=O)cc2)n1` [compound 185, 4-{[6-(2-methyl-1H-benzimidazol-1-yl)pyrazin-2-yl]amino}benzamide] the value was 100 to 3000 nM.
Consider `COc1cc(C)ccc1Nc1cncc(-n2c(C)nc3ccccc32)n1` [compound 576, N-(2-methoxy-4-methylphenyl)-6-(2-methyl-1H-benzimidazol-1-yl)pyrazin-2-amine], for which the EC50 was in the range of 100 to 3000 nM.
With `FC(F)C(F)(F)Oc1ccc(Nc2cncc(-c3c(C(F)(F)F)nc4ccccn34)n2)cc1` [compound 322, N-[4-(1,1,2,2-tetrafluoroethoxy)phenyl]-6-[2-(trifluoromethyl)imidazo[1,2-a]pyridin-3-yl]pyrazin-2-amine], the half-maximal effective concentration (EC50) fell in the range of 100 to 3000 nM.
On the same count and under the same terms, for `Cc1nc2ncccc2n1-c1cncc(NC2=CCC(F)(C(F)(F)F)C=C2)n1` (stereo not shown) [compound 360, N-[4-fluoro-4-(trifluoromethyl)phenyl]-6-(2-methyl-1H-imidazo[4,5-b]pyridin-1-yl)pyrazin-2-amine] the value was 10 to 100 nM.
As to `Cc1ccc(Nc2cncc(-c3c(CO)nc4ccccn34)n2)cc1` [compound 214, (3-{6-[(4-methylphenyl)amino]pyrazin-2-yl}imidazo[1,2-a]pyridin-2-yl)methanol], the EC50 is < 1 nM.
Same read-out and setting: for `FC1CCc2nc(C(F)(F)F)c(-c3cncc(Nc4ccc(C(F)(F)F)cc4)n3)n2C1` (stereo not shown) [compound 406, 6-[6-fluoro-2-(trifluoromethyl)-5,6,7,8-tetrahydroimidazo[1,2-a]pyridin-3-yl]-N-[4-(trifluoromethyl)phenyl]pyrazin-2-amine] the value was 10 to 100 nM; for `Cc1nc2ccccc2n1-c1cncc(NC2Cc3ccccc3C2)n1` [compound 424, N-(2,3-dihydro-1H-inden-2-yl)-6-(2-methyl-1H-benzimidazol-1-yl)pyrazin-2-amine], 100 to 3000 nM.
`Cc1nc2ncc(Cl)cc2n1-c1cncc(Nc2ccc(OC(F)(F)F)cc2)n1` [compound 542, 6-(6-chloro-2-methyl-1H-imidazo[4,5-b]pyridin-1-yl)-N-[4-(trifluoromethoxy)phenyl]pyrazin-2-amine]: the 50% effective concentration (EC50) fell in the range of 10 to 100 nM.
On the same count and under the same terms, for `Cc1nc2ccccc2n1-c1cncc(Nc2ccc(Br)cc2)n1` [compound 616, N-(4-bromophenyl)-6-(2-methyl-1H-benzimidazol-1-yl)pyrazin-2-amine] the value was 1 to 10 nM.
Still for that read-out and setting: for `Cc1nc2ccc(F)cc2n1-c1cccc(Nc2ccc(Cl)cc2)n1` [Cpd 608, N-(4-chlorophenyl)-6-(6-fluoro-2-methyl-1H-benzimidazol-1-yl)pyridin-2-amine] the value was 10 to 100 nM.

The same experiment, now with this note: read-out: ELISA EC50 value for Bmi-1 protein, Table 1, Bmi-1 sandwich ELISA.
Take `FC(F)(F)c1ccc(Nc2cncc(-c3c(C(F)(F)F)nn4ccccc34)n2)cc1` [compound 62, N-[4-(trifluoromethyl)phenyl]-6-[2-(trifluoromethyl)pyrazolo[1,5-a]pyridin-3-yl]pyrazin-2-amine]: the 50% effective concentration (EC50) fell in the range of 10 to 100 nM.
For the compound `FC(F)Oc1ccc(Nc2cncc(-c3cccc4nc(C5CC5)cn34)n2)cc1` [compound 90, 6-(2-cyclopropylimidazo[1,2-a]pyridin-5-yl)-N-[4-(difluoromethoxy)phenyl]pyrazin-2-amine], the EC50 is 10 to 100 nM.

The EC50 is the midpoint of the concentration-response curve.
